This passage reports DPPH test value and zone of inhibition results from patent US20060159732A1, “Antioxidant wound dressing materials” (priority 2003, published 2006).

Structures are written as SMILES.

Test [1] in a line: DPPH test (Procedure 1), free radical / antioxidant activity. Conditions: positive control at 10^-4M; percentage reduction of absorbance at 524 nm relative to the control after 4 hours. As for the experimental part: Preferably, the material according to the present invention has a free radical activity, that is to say an antioxidant activity, of at least about 15% in the diphenylpicrylhydrazyl (DPPH) test, measured as percentage reduction in absorbance at 524 nm after 4 hours of a 0.5% w/v dispersion of the polysaccharide in 10^−4M DPPH, as described further hereinbelow in Procedure 1. Preferably the percentage reduction in absorbance in the DPPH test (after correction for any absorbance by the dye) is at least about 25%, more preferably at least about 50%, and most preferably at least about 75%.
The ability of the wound dressing materials to react with and remove oxygen containing free radicals is assessed by the DPPH test described in WO94/13333, the entire content of which is expressly incorporated herein by reference. […]
Briefly, the wound dressing material under test (2.5 mg; 5 mg; & 25 mg sample sizes) was suspended in 2.5 ml of 0.1M pH 7.0 phosphate buffer. […] The samples were assessed by measurement of their light absorbance at 524 nm over 6 hours in comparison with a control, particular attention being paid to the figure after 4 hours. The percentage reduction of absorbance relative to the control after 4 hours gives the DPPH test value, with a reproducibility generally of ±5%. […]
In general terms: Loss of DPPH colour is used to gauge radical scavenging.

Another test deals with Staphylococcus aureus. The test can be described thus: Zone of inhibition test (Procedure 2) on Staphylococcus aureus. The class given is cell-based. Conditions: DSA plates, 37° C., every 24 hours over the test period (72 hours). The protocol:
(§1) Six 2 cm×2 cm squares of each sample are cut out in sterile conditions. On day one of the experiment, cultures of both Pseudomonas aeruginosa (ATCC 27853 and various PSI strains) and Staphylococcus aureus (provided by the Dept of Clinical Microbiology and Pathology) are incubated aerobically at 37° C. for 24 hours on Diagnostic Sensitivity Agar (DSA). After 24 hours test samples are each placed on a DSA plate and immediately wetted with 0.5 mls of a buffer solution. Three squares of sample are placed on plates inoculated with Pseudomonas aeruginosa and three are placed on plates inoculated with Staphylococcus aureus. The plates are then incubated at 37° C. for 24 hours. The zone of inhibited growth around the sample is then measured using calipers, and the test sample is placed on a new inoculated DSA plate. A swab test is carried out on the area beneath the sample to determine if the sample is bacteriostatic if not bactericidal by smearing the swab on a DSA plate and incubating it for 24 hours and then examining the growth.

The test system of test [2] is Pseudomonas aeruginosa (ATCC 27853 and various PSI strains). The test can be described thus: Zone of inhibition test (Procedure 2) on Pseudomonas aeruginosa. The test is classed as cell-based. To be noted: DSA plates, 37° C., every 24 hours over the test period (72 hours). The protocol:
as §1

As for `O=C1O[C@H]([C@@H](O)CO)C(O)=C1O` [positive control, Ascorbic acid], the DPPH test value in test [1] was 80-90%.

In the case of `O=[N+]([O-])[O-].[Ag+]` [silver nitrate solution (0.5%), silver nitrate], the zone of inhibition result (in the test on Staphylococcus aureus; in test [2]) was “zones of inhibition were observed” each time.
